According to ChEMBL document CHEMBL1201862, “PubChem BioAssay data set” (2004):
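Assay format: 96-well plates, 48-hour exposure. Abbreviation: GI50, concentration required for 50% inhibition of growth.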 Calls of active or inactive are those of the source. Rule as the data show it: active = GI50 up to about 1.1 µM and inactive = higher.

Tests used:
Assay in all cases: inhibition of tumour cell growth, NCI panel, 48 h
A498 = tested on: A498
SK-MEL-28 = tested on: SK-MEL-28
MDA-MB-435 = tested on: MDA-MB-435
LOX IMVI = tested on: LOX IMVI
COLO 205 = tested on: COLO 205
OVCAR-5 = tested on: OVCAR-5
BT-549 = tested on: BT-549
HT-29 = tested on: HT-29
OVCAR-4 = tested on: OVCAR-4
NCI/ADR-RES = tested on: NCI/ADR-RES
TK-10 = tested on: TK-10
IGROV-1 = tested on: IGROV-1
SNB-19 = tested on: SNB-19
SW-620 = tested on: SW-620
ACHN = tested on: ACHN
NCI-H226 = tested on: NCI-H226
HL-60 = tested on: HL-60
SN12C = tested on: SN12C
SNB-75 = tested on: SNB-75
Malme-3M = tested on: Malme-3M

Measured: GI50

CCCCCCNC(=O)c1cc(C#Cc2cc(OC)ccc2OC)ccc1OC
inactive: A498 > 100 µM | SK-MEL-28 3.04 µM | MDA-MB-435 2.75 µM | LOX IMVI > 100 µM | COLO 205 55.3 µM | OVCAR-5 > 100 µM | BT-549 18.9 µM | HT-29 7.53 µM | OVCAR-4 > 100 µM | NCI/ADR-RES 47.8 µM | TK-10 > 100 µM | IGROV-1 72.1 µM | SNB-19 > 100 µM | SW-620 8.49 µM | ACHN > 100 µM

O=C1C=C(Br)c2c(Br)sc(Br)c21
inactive: NCI-H226 32.5 µM | SK-MEL-28 18.9 µM | HL-60 5.36 µM | MDA-MB-435 10 µM | LOX IMVI 2.37 µM | COLO 205 4.83 µM | OVCAR-5 19.1 µM | BT-549 6.76 µM | HT-29 13.5 µM | SN12C 12.9 µM | OVCAR-4 18 µM | NCI/ADR-RES 12.6 µM | TK-10 6.87 µM | IGROV-1 5.35 µM | SNB-75 18.3 µM | SNB-19 17.7 µM | SW-620 3.13 µM | Malme-3M 18.6 µM | ACHN 4.62 µM

COc1cccc(C2c3cc4c(cc3OC(O)C2C)OCO4)c1OC (stereo not given)
inactive: NCI-H226 2.51 µM | A498 4.49 µM | SK-MEL-28 13.3 µM | HL-60 1.87 µM | MDA-MB-435 5.97 µM | LOX IMVI 4.05 µM | COLO 205 6.11 µM | OVCAR-5 16.2 µM | BT-549 10.1 µM | HT-29 3.66 µM | SN12C 4.78 µM | TK-10 7.4 µM | IGROV-1 4.65 µM | SNB-75 2.36 µM | SNB-19 11.2 µM | SW-620 3.64 µM | Malme-3M 11 µM | ACHN 3.18 µM

Clc1ccc(/C=C/c2nc3ccccc3s2)cc1Cl
inactive: SK-MEL-28 > 100 µM | HL-60 82 µM | MDA-MB-435 > 100 µM | LOX IMVI 1.42 µM | COLO 205 54.1 µM | OVCAR-5 80.7 µM | BT-549 30.1 µM | HT-29 > 100 µM | SN12C > 100 µM | OVCAR-4 15.6 µM | NCI/ADR-RES 63.2 µM | TK-10 34.4 µM | IGROV-1 16.9 µM | SNB-75 12.8 µM | SNB-19 30.5 µM | SW-620 1.73 µM | Malme-3M 48.2 µM | ACHN 29.4 µM

O=C(/C=C(\N=P(c1ccccc1)(c1ccccc1)c1ccccc1)C(F)(F)C(F)(F)C(F)(F)C(F)(F)C(F)(F)C(F)(F)C(F)(F)F)c1ccccc1
inactive: SK-MEL-28 > 100 µM | HL-60 > 100 µM | MDA-MB-435 > 100 µM | LOX IMVI > 100 µM | COLO 205 > 100 µM | OVCAR-5 > 100 µM | BT-549 > 100 µM | HT-29 > 100 µM | SN12C > 100 µM | OVCAR-4 > 100 µM | NCI/ADR-RES > 100 µM | TK-10 > 100 µM | IGROV-1 > 100 µM | SNB-75 > 100 µM | SNB-19 > 100 µM | SW-620 > 100 µM | Malme-3M > 100 µM | ACHN > 100 µM

COC1C(N(C)C)=C(c2ccccc2)C(=O)N2CCc3ccccc3C12 (stereo not given)
inactive: NCI-H226 > 100 µM | A498 > 100 µM | SK-MEL-28 > 100 µM | HL-60 > 100 µM | MDA-MB-435 > 100 µM | LOX IMVI > 100 µM | COLO 205 > 100 µM | OVCAR-5 > 100 µM | HT-29 > 100 µM | SN12C > 100 µM | OVCAR-4 > 100 µM | NCI/ADR-RES > 100 µM | TK-10 > 100 µM | IGROV-1 > 100 µM | SNB-75 > 100 µM | SNB-19 > 100 µM | SW-620 > 100 µM | Malme-3M > 100 µM | ACHN > 100 µM

CN(C)c1ccc(/C=C2\Oc3cc(O)ccc3C2=O)cc1
inactive: NCI-H226 > 100 µM | SK-MEL-28 > 100 µM | HL-60 40.5 µM | MDA-MB-435 36.9 µM | COLO 205 > 100 µM | BT-549 65.8 µM | SN12C 62.4 µM | OVCAR-4 > 100 µM | NCI/ADR-RES 83.4 µM | TK-10 > 100 µM | IGROV-1 > 100 µM | SNB-75 79.6 µM | SNB-19 > 100 µM | SW-620 48.9 µM | ACHN > 100 µM

CCOC(=O)C(=O)C(=O)NN(C)C1=NCCN1
inactive: NCI-H226 > 100 µM | SK-MEL-28 > 100 µM | HL-60 > 100 µM | MDA-MB-435 > 100 µM | LOX IMVI > 100 µM | COLO 205 > 100 µM | OVCAR-5 > 100 µM | BT-549 > 100 µM | HT-29 > 100 µM | SN12C > 100 µM | OVCAR-4 > 100 µM | NCI/ADR-RES > 100 µM | TK-10 > 100 µM | IGROV-1 > 100 µM | SNB-75 > 100 µM | SNB-19 > 100 µM | SW-620 > 100 µM | Malme-3M > 100 µM | ACHN > 100 µM

C/C=C/C=C/c1nc(C#N)c(N)o1
inactive: NCI-H226 > 100 µM | SK-MEL-28 > 100 µM | MDA-MB-435 > 100 µM | LOX IMVI > 100 µM | COLO 205 > 100 µM | OVCAR-5 > 100 µM | BT-549 > 100 µM | HT-29 > 100 µM | SN12C > 100 µM | OVCAR-4 > 100 µM | NCI/ADR-RES > 100 µM | TK-10 > 100 µM | IGROV-1 > 100 µM | SNB-75 > 100 µM | SNB-19 > 100 µM | SW-620 > 100 µM | Malme-3M > 100 µM | ACHN > 100 µM

CCCCCCCCCOC(=O)c1cnc(Cl)cn1
inactive: NCI-H226 18.2 µM | SK-MEL-28 24 µM | MDA-MB-435 19.9 µM | LOX IMVI 19.8 µM | COLO 205 22.2 µM | OVCAR-5 29 µM | BT-549 26.5 µM | HT-29 29 µM | SN12C 18.3 µM | OVCAR-4 27.9 µM | NCI/ADR-RES 22.2 µM | TK-10 20.5 µM | IGROV-1 20.2 µM | SNB-75 22.3 µM | SNB-19 20.9 µM | SW-620 17.3 µM | Malme-3M 19.6 µM | ACHN 19.4 µM

CN1C/C(=C\c2cccs2)C(O)/C(=C/c2cccs2)C1 (stereo not given)
inactive: NCI-H226 > 100 µM | A498 > 100 µM | SK-MEL-28 > 100 µM | MDA-MB-435 > 100 µM | LOX IMVI > 100 µM | COLO 205 87.1 µM | OVCAR-5 > 100 µM | BT-549 > 100 µM | HT-29 > 100 µM | SN12C 74.5 µM | OVCAR-4 35.5 µM | NCI/ADR-RES > 100 µM | TK-10 > 100 µM | IGROV-1 53 µM | SNB-19 > 100 µM | SW-620 > 100 µM | Malme-3M 50.1 µM | ACHN > 100 µM

CCCC[C@@H](C)/C=C1\CN2CCC[C@H]2[C@@](C)(O)[C@@H]1O
inactive: NCI-H226 > 100 µM | A498 > 100 µM | SK-MEL-28 > 100 µM | HL-60 1.92 µM | MDA-MB-435 96.2 µM | LOX IMVI 22.8 µM | COLO 205 > 100 µM | OVCAR-5 > 100 µM | HT-29 43.2 µM | OVCAR-4 21.9 µM | NCI/ADR-RES 58.9 µM | TK-10 > 100 µM | IGROV-1 51.6 µM | SNB-75 20.2 µM | SNB-19 58.9 µM | SW-620 > 100 µM | Malme-3M > 100 µM | ACHN 42 µM

c1cc2nnc1SCCSCCCSCCS2
inactive: NCI-H226 > 100 µM | A498 > 100 µM | SK-MEL-28 29.2 µM | HL-60 > 100 µM | MDA-MB-435 > 100 µM | LOX IMVI > 100 µM | COLO 205 > 100 µM | OVCAR-5 > 100 µM | HT-29 > 100 µM | SN12C > 100 µM | OVCAR-4 34.6 µM | NCI/ADR-RES > 100 µM | TK-10 > 100 µM | IGROV-1 > 100 µM | SNB-75 5.83 µM | SNB-19 56.8 µM | SW-620 > 100 µM | Malme-3M > 100 µM | ACHN > 100 µM

Cc1cc(-c2nc3cccc(O)c3s2)ccc1N
inactive: NCI-H226 45.1 µM | SK-MEL-28 51.4 µM | HL-60 22.3 µM | MDA-MB-435 17.4 µM | LOX IMVI 26.4 µM | COLO 205 24.2 µM | BT-549 18.5 µM | HT-29 36.3 µM | SN12C 39.9 µM | NCI/ADR-RES 21.1 µM | TK-10 33.6 µM | IGROV-1 22.2 µM | SNB-75 > 100 µM | SW-620 46.9 µM | ACHN 18.2 µM
active: SNB-19 < 0.01 µM

NNC(=O)c1cc(Cl)ccc1NC(=O)C12CC3CC(CC(C3)C1)C2
inactive: NCI-H226 > 100 µM | SK-MEL-28 29.9 µM | HL-60 23 µM | MDA-MB-435 29.3 µM | LOX IMVI 32 µM | COLO 205 33.6 µM | OVCAR-5 15.6 µM | BT-549 37.4 µM | HT-29 20.2 µM | SN12C 20.5 µM | OVCAR-4 21.8 µM | NCI/ADR-RES 34.8 µM | TK-10 28.4 µM | IGROV-1 30.8 µM | SNB-75 42.9 µM | SNB-19 15.6 µM | SW-620 39.6 µM | Malme-3M 23.6 µM | ACHN 23.6 µM

CC1(C)OCC(COC(=O)NCn2cc(-c3ccccc3)nn2)O1 (stereo not given)
inactive: NCI-H226 > 100 µM | SK-MEL-28 > 100 µM | HL-60 > 100 µM | LOX IMVI > 100 µM | COLO 205 > 100 µM | OVCAR-5 > 100 µM | BT-549 > 100 µM | HT-29 > 100 µM | SN12C > 100 µM | OVCAR-4 > 100 µM | NCI/ADR-RES > 100 µM | TK-10 > 100 µM | IGROV-1 > 100 µM | SNB-75 > 100 µM | SNB-19 > 100 µM | SW-620 > 100 µM | Malme-3M > 100 µM | ACHN > 100 µM
